From PMC10447463, “Data-mining unveils structure–property–activity correlation of viral infectivity enhancing self-assembling peptides” (Nature Communications, 2023)

Assays:
[1] = test system: HIV-1 infection of TZM-bl cells; test: HIV-1 infectivity enhancement assay, β-galactosidase luminescence; type: cell-based
[2] = Turbidity, derived count rate of scattered light; type: physicochemical; settings: for Count Rate / kcps: derived count rate of scattered light at 633 nm, 173°, from zeta-potential measurement, 0.1 mg/mL in 1 mM KCl after 1 d at 1 mg/mL in PBS, turbidity / microscopic aggregation, mean of triplicate
How it was run: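 Samples: 1 mg/mL in PBS pH 7.4 (from DMSO), 1 d at RT, then diluted in 1 mM KCl immediately before measurement. Triplicates, two independent runs averaged.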

[3] = log10 of infection relative to EF-C, Figure 6C
[4] = n-fold infection vs virus only, relative to that of EF-C, 1.3 µM peptide
[5] = log10 of derived count rate of scattered light, Figure 6C
[6] = logarithm of count rate in kcps
[7] = Feb2021; figures match the 1.3 µM column
[8] = Feb2021; infectivity relative to virus only
[9] = Feb2021; log10 of infectivity relative to EF-C
[10] = Feb2021; n-fold infectivity relative to EF-C
[11] = Feb2021 run; infectivity n-fold relative to virus alone
[12] = Feb2021 run; log10 of infectivity relative to EF-C
[13] = Feb2021 run; n-fold infectivity relative to EF-C
[14] = infectivity class (low / medium / high) of each library peptide; main list in c1-c6, same classes repeated in sub-lists of sequences containing the hydrophobicity/charge patterns P+,H0,P+,H0,P0,H0,P0; P+,H0,P0,H0,P0,H0,P0; P+,H0,P0,H0
[15] = infectivity enhancement relative to EF-C (=1); Feb2021 run
[16] = infectivity n-fold relative to virus only; Feb2021 run
[17] = log10 of HIV-1 infection of TZM-bl cells relative to EF-C; Fig S15 source data; asymmetric std dev errors
[18] = log10 of infectivity relative to EF-C; Feb2021 run
[19] = derived count rate from zeta measurement, mean
[20] = derived count rate of scattered light
[21] = derived count rate of scattered light, mean, std deviation in separate column
[22] = infectivity class (low / medium / high) of the peptide in the sequence-pattern analysis, Fig. S22-A4; class limits not given

RIRFHIW
Log10 Infection Rel EF-C [1, 3]: -1.984 | Inf. rel. EF-C [1, 4]: 0.01 | Count Rate / kcps [2]: 12.4 kcps | Log10 Count Rate [2, 5]: 1.093 | Log10 Count Rate [2, 6]: 1.093

KFKFQFFF [TG12]
Absolute Infectivity / RLU /s (Feb2021) [1, 7]: 8657 RLU /s | n-fold to virus (Feb2021) [1, 8]: 16.97 | Log10 of Rel to EFC (Feb2021) [1, 9]: -0.3937 | Rel-to EFC (Feb-2021) [1, 10]: 0.404 | n-fold to virus (Feb2021) [1, 11]: 16.97 | Log10 of Rel to EFC (Feb2021) [1, 12]: -0.3937 | Rel-to EFC (Feb-2021) [1, 13]: 0.404 | infectivity [1, 14]: medium | Rel-to EFC (Feb-2021) [1, 15]: 0.404 | n-fold to virus (Feb2021) [1, 16]: 16.97 | Log10 Inf. rel. to EF-C [1, 17]: -0.3936 | Log10 of Rel to EFC (Feb2021) [1, 18]: -0.3937 | Zeta Count Rate Category ([2]; category 1 / 0, no key given): 1 | Zeta Count Rate / kcps [2, 19]: 3039 kcps | Zeta Count Rate / kcps [2, 20]: 3039 kcps | Zeta Count Rate / kcps [2, 21]: 3039 kcps | Zeta Count Rate Category ([2]; key not given): 1

NMWQKIKIQI [JG9]
infectivity [1, 14]: medium | Log10 Inf. rel. to EF-C [1, 17]: -0.6877

MKVIFLKDVKG [reference compound]
infectivity enhancement, in words ([1]; fibril-forming peptides with positive zeta-potential, low count rate): do not enhance infectivity | Log10 Infection Rel EF-C ([1]; log10 of infection relative to EF-C, Figure 7B): -0.93 | Inf. rel. EF-C [1, 4]: 0.12 | Count Rate / kcps [2]: 137 kcps

KIKIQIRGD [MG6]
infectivity [1, 14]: low | infectivity [1, 22]: low | Log10 Inf. rel. to EF-C [1, 17]: -1.678

KFKFQFN [BL7]
n-fold to virus (Feb2021) [1, 11]: 0.757 | Log10 of Rel to EFC (Feb2021) [1, 12]: -1.744 | Rel-to EFC (Feb-2021) [1, 13]: 0.01802 | infectivity [1, 14]: low | Log10 Inf. rel. to EF-C [1, 17]: -1.744 | Zeta Count Rate / kcps [2, 21]: 50.7 kcps

KAKQAANMWQ [JG6]
Absolute Infectivity / RLU /s (Feb2021) [1, 7]: 343.3 RLU /s | n-fold to virus (Feb2021) [1, 8]: 1.2875 | Log10 of Rel to EFC (Feb2021) [1, 9]: -1.514 | Rel-to EFC (Feb-2021) [1, 10]: 0.03064 | infectivity [1, 14]: low | Log10 Inf. rel. to EF-C [1, 17]: -1.514 | Zeta Count Rate Category ([2]; category 1 / 0, no key given): 1 | Zeta Count Rate / kcps [2, 20]: 690.5 kcps

KVKVQVVV [TG8]
Absolute Infectivity / RLU /s (Feb2021) [1, 7]: 820 RLU /s | n-fold to virus (Feb2021) [1, 8]: 1.473 | Log10 of Rel to EFC (Feb2021) [1, 9]: -1.455 | Rel-to EFC (Feb-2021) [1, 10]: 0.03506 | infectivity [1, 14]: low | infectivity [1, 22]: low | Rel-to EFC (Feb-2021) [1, 15]: 0.03506 | n-fold to virus (Feb2021) [1, 16]: 1.473 | Log10 Inf. rel. to EF-C [1, 17]: -1.455 | Log10 of Rel to EFC (Feb2021) [1, 18]: -1.455 | Zeta Count Rate Category ([2]; category 1 / 0, no key given): 1 | Zeta Count Rate / kcps [2, 19]: 163.1 kcps | Zeta Count Rate / kcps [2, 20]: 163.1 kcps | Zeta Count Rate Category ([2]; key not given): 1

NMWQKIKQII [JG8]
infectivity [1, 14]: low | Log10 Inf. rel. to EF-C [1, 17]: -1.5971

KFQFNMW
Log10 Infection Rel EF-C [1, 3]: -0.7437 | Inf. rel. EF-C [1, 4]: 0.18 | Count Rate / kcps [2]: 331.6 kcps | Log10 Count Rate [2, 5]: 2.521 | Log10 Count Rate [2, 6]: 2.521

RLRLTLC [CN13]
Absolute Infectivity / RLU /s (Feb2021) [1, 7]: 1334 RLU /s | n-fold to virus (Feb2021) [1, 8]: 2.165 | Log10 of Rel to EFC (Feb2021) [1, 9]: -1.288 | Rel-to EFC (Feb-2021) [1, 10]: 0.05153 | infectivity [1, 14]: low | Log10 Inf. rel. to EF-C [1, 17]: -1.288 | Zeta Count Rate Category ([2]; category 1 / 0, no key given): 1 | Zeta Count Rate / kcps [2, 20]: 125.6 kcps

KIKIQINMWA [JR1]
infectivity [1, 14]: medium | Log10 Inf. rel. to EF-C [1, 17]: -0.1642

NMWQKFKFQF [JG11]
infectivity [1, 14]: medium | Log10 Inf. rel. to EF-C [1, 17]: -0.5672

NMWQKAKAQA [JG10]
infectivity [1, 14]: low | Log10 Inf. rel. to EF-C [1, 17]: -1.376

KIKIQINAWQ [JR3-II]
infectivity [1, 14]: medium | Log10 Inf. rel. to EF-C [1, 17]: -0.2703

CKIKIQIRGD [psis21]
infectivity [1, 14]: medium | Log10 Inf. rel. to EF-C [1, 17]: -0.4842

KIKIQINMAQ [JR2]
infectivity [1, 14]: medium | Log10 Inf. rel. to EF-C [1, 17]: -0.6722
